Laboratory results as given in US9493486B2, “Diazaspirocycloalkane and azaspirocycloalkane” (Hoffmann-La Roche Inc., priority 2012, dated 2016).

These molecules were tested against ATX (human His-tagged) (Homo sapiens (Human), UniProt Q13822) (assay: Human ATX enzyme inhibition assay (fluorescence quenching, MR121 substrate)). Settings: 30 nM ATX, 1 μM MR121 substrate, 30° C.
Type: biochemical
Excerpt: Human ATX Enzyme Inhibition Assay
Assay working solutions were made as follows:

| IC50 | Structure (SMILES) |
| --- | --- |
| 53.5 nM | O=C(NC1CC2(C1)CN(C(=O)OCc1cc(Cl)cc(OC(F)(F)F)c1)C2)c1ccc2[nH]nnc2c1 [Example 12.18, 6-[(1H-benzotriazole-5-carbonyl)-amino]-2-aza-spiro[3.3]heptane-2-carboxylic acid 3-chloro-5-trifluoromethoxy-benzyl ester] |
| 2 nM | O=C(OCc1ccc(OC(F)(F)F)cc1F)N1CC2(CCN(C(=O)C3CCc4[nH]nnc4C3)CC2)C1 (stereo not shown) [Example 12.41, 2-fluoro-4-(trifluoromethoxy)benzyl 7-(4,5,6,7-tetrahydro-1H-benzo[d][1,2,3]triazole-5-carbonyl)-2,7-diazaspiro[3.5]nonane-2-carboxylate] |
| 2.5 nM | O=C(OCc1ccc(OCC(F)(F)F)c(F)c1)N1CCC2(CC1)CN(C(=O)C1CCc3nn[nH]c3C1)C2 (stereo not shown) [Example 12.40, 3-fluoro-4-(2,2,2-trifluoroethoxy)benzyl 2-(4,5,6,7-tetrahydro-1H-benzo[d][1,2,3]triazole-6-carbonyl)-2,7-diazaspiro[3.5]nonane-7-carboxylate] |
| 201 nM | O=C(OCc1cccc(Cl)c1)N1CCC2(CC1)CN(C(=O)c1ccc3[nH]nnc3c1)C2 [Example 1.03, 3-chlorobenzyl 2-(1H-benzo[d][1,2,3]triazole-5-carbonyl)-2,7-diazaspiro[3.5]nonane-7-carboxylate] |
